Measured values from ChEMBL document CHEMBL3885861, “Open TG-GATES”.

Organism: Rattus norvegicus
Assay: Open TG-GATES - Regimen: Daily Repeat
Format: toxicity, organism-based, Sprague-Dawley
Parameters: regimen Daily Repeat, gender Male, age 6 weeks
Details: in vivo, po, 0 mg/kg, route gavage, dose level Control; for APTT / Bas / Eos / Fbg / Hb / Ht / Lym / MCH / MCHC / MCV / Mono / Neu / PT / Plat / RBC / Ret / WBC: tissue Blood; for KIDNEY_L / KIDNEY_R / KIDNEY_TOTAL: tissue Kidney; for LIVER: tissue Liver; for ALP / ALT / AST / BUN / CRE / Ca / Cl / DBIL / GLC / IP / K / LDH / Na / PL / RALB / TBIL / TC / TG / TP / gamma-GTP: tissue Plasma

Which results are given for `O=P1(N(CCCl)CCCl)NCCCO1` (stereo not drawn) [CYCLOPHOSPHAMIDE ANHYDROUS]?
TERMINAL_BW (72 h, time 3 day): 215.1 g; APTT (72 h, time 3 day): 21.5 s; Bas (72 h, time 3 day): 0%; Eos (72 h, time 3 day): 0.8%; Fbg (72 h, time 3 day): 293.2 mg/dL; Hb (72 h, time 3 day): 13.3 g/dL; Ht (72 h, time 3 day): 40.1%; Lym (72 h, time 3 day): 81.4%; MCH (72 h, time 3 day): 21.8 pg; MCHC (72 h, time 3 day): 33.2%; MCV (72 h, time 3 day): 65.7 fL; Mono (72 h, time 3 day): 2.6%; Neu (72 h, time 3 day): 14.6%; PT (72 h, time 3 day): 16.8 s; Plat (72 h, time 3 day): 112 x10_4/uL; RBC (72 h, time 3 day): 611 x10_4/ul; Ret (72 h, time 3 day): 6.7%; WBC (72 h, time 3 day): 82.4 x10_2/uL; KIDNEY_L (72 h, time 3 day): 0.9 g; KIDNEY_R (72 h, time 3 day): 0.9 g; KIDNEY_TOTAL (72 h, time 3 day): 1.9 g; LIVER (72 h, time 3 day): 10.1 g; ALP (72 h, time 3 day): 1749.2 IU/L; ALT (72 h, time 3 day): 40.2 IU/L; AST (72 h, time 3 day): 68 IU/L; BUN (72 h, time 3 day): 15.4 mg/dL; CRE (72 h, time 3 day): 0.2 mg/dL; Ca (72 h, time 3 day): 10.8 mg/dL; Cl (72 h, time 3 day): 106.2 meq/L; DBIL (72 h, time 3 day): 0.002 mg/dL; GLC (72 h, time 3 day): 182.6 mg/dL; IP (72 h, time 3 day): 6.4 mg/dL; K (72 h, time 3 day): 3.9 meq/L; LDH (72 h, time 3 day): 190.6 IU/L; Na (72 h, time 3 day): 142.6 meq/L; PL (72 h, time 3 day): 133.8 mg/dL; RALB (72 h, time 3 day): 3.1 g/dL; TBIL (72 h, time 3 day): 0.018 mg/dL; TC (72 h, time 3 day): 69.6 mg/dL; TG (72 h, time 3 day): 84.2 mg/dL; TP (72 h, time 3 day): 5.5 g/dL; gamma-GTP (72 h, time 3 day): 1 IU/L; TERMINAL_BW ([…], time 7 day): 254.4 g; TERMINAL_BW ([…], time 14 day): 304.2 g; TERMINAL_BW ([…], time 28 day): 368.5 g; APTT ([…], time 7 day): 21.7 s; Bas ([…], time 7 day): 0%; Eos ([…], time 7 day): 1%; Fbg ([…], time 7 day): 283.2 mg/dL; Hb ([…], time 7 day): 13.1 g/dL; Ht ([…], time 7 day): 39.7%; Lym ([…], time 7 day): 80%; MCH ([…], time 7 day): 20.7 pg; MCHC ([…], time 7 day): 33.1%; MCV ([…], time 7 day): 62.7 fL; Mono ([…], time 7 day): 2.4%; Neu ([…], time 7 day): 16.2%; PT ([…], time 7 day): 16.8 s; Plat ([…], time 7 day): 112.1 x10_4/uL; RBC ([…], time 7 day): 633.4 x10_4/ul; Ret ([…], time 7 day): 6.1%; WBC ([…], time 7 day): 106.9 x10_2/uL; APTT ([…], time 14 day): 22 s; Bas ([…], time 14 day): 0%; Eos ([…], time 14 day): 1%; Fbg ([…], time 14 day): 307.8 mg/dL; Hb ([…], time 14 day): 13.7 g/dL; Ht ([…], time 14 day): 40.6%; Lym ([…], time 14 day): 81.4%; MCH ([…], time 14 day): 20.2 pg; MCHC ([…], time 14 day): 33.7%; MCV ([…], time 14 day): 60 fL; Mono ([…], time 14 day): 2.2%; Neu ([…], time 14 day): 14.6%; PT ([…], time 14 day): 15 s; Plat ([…], time 14 day): 118.8 x10_4/uL; RBC ([…], time 14 day): 676.6 x10_4/ul; Ret ([…], time 14 day): 4.8%; WBC ([…], time 14 day): 131.2 x10_2/uL; APTT ([…], time 28 day): 23.8 s; Bas ([…], time 28 day): 0%; Eos ([…], time 28 day): 1%; Fbg ([…], time 28 day): 303.8 mg/dL; Hb ([…], time 28 day): 14.8 g/dL; Ht ([…], time 28 day): 43.6%; Lym ([…], time 28 day): 82.4%; MCH ([…], time 28 day): 19.2 pg; MCHC ([…], time 28 day): 34%; MCV ([…], time 28 day): 56.6 fL; Mono ([…], time 28 day): 2%; Neu ([…], time 28 day): 13.6%; PT ([…], time 28 day): 16.5 s; Plat ([…], time 28 day): 96.2 x10_4/uL; RBC ([…], time 28 day): 769.8 x10_4/ul; Ret ([…], time 28 day): 2.9%; WBC ([…], time 28 day): 112.3 x10_2/uL; KIDNEY_L ([…], time 7 day): 1.1 g; KIDNEY_R ([…], time 7 day): 1.1 g; KIDNEY_TOTAL ([…], time 7 day): 2.2 g; KIDNEY_L ([…], time 14 day): 1.2 g; KIDNEY_R ([…], time 14 day): 1.2 g; KIDNEY_TOTAL ([…], time 14 day): 2.4 g; KIDNEY_L ([…], time 28 day): 1.3 g; KIDNEY_R ([…], time 28 day): 1.3 g; KIDNEY_TOTAL ([…], time 28 day): 2.6 g; LIVER ([…], time 7 day): 11 g; LIVER ([…], time 14 day): 13.4 g; LIVER ([…], time 28 day): 14.2 g; ALP ([…], time 7 day): 1566.6 IU/L; ALT ([…], time 7 day): 44.8 IU/L; AST ([…], time 7 day): 77.6 IU/L; BUN ([…], time 7 day): 18.6 mg/dL; CRE ([…], time 7 day): 0.2 mg/dL; Ca ([…], time 7 day): 10.7 mg/dL; Cl ([…], time 7 day): 106 meq/L; DBIL ([…], time 7 day): 0 mg/dL; GLC ([…], time 7 day): 196.2 mg/dL; IP ([…], time 7 day): 7.9 mg/dL; K ([…], time 7 day): 4.4 meq/L; LDH ([…], time 7 day): 200.2 IU/L; Na ([…], time 7 day): 143.8 meq/L; PL ([…], time 7 day): 146.8 mg/dL; RALB ([…], time 7 day): 2.9 g/dL; TBIL ([…], time 7 day): 0.016 mg/dL; TC ([…], time 7 day): 73.8 mg/dL; TG ([…], time 7 day): 98.2 mg/dL; TP ([…], time 7 day): 5.4 g/dL; gamma-GTP ([…], time 7 day): 1.6 IU/L; ALP ([…], time 14 day): 1394.4 IU/L; ALT ([…], time 14 day): 37.8 IU/L; AST ([…], time 14 day): 65.8 IU/L; BUN ([…], time 14 day): 18.2 mg/dL; CRE ([…], time 14 day): 0.2 mg/dL; Ca ([…], time 14 day): 10.6 mg/dL; Cl ([…], time 14 day): 107 meq/L; DBIL ([…], time 14 day): 0 mg/dL; GLC ([…], time 14 day): 182.6 mg/dL; IP ([…], time 14 day): 7 mg/dL; K ([…], time 14 day): 4 meq/L; LDH ([…], time 14 day): 152 IU/L; Na ([…], time 14 day): 143.4 meq/L; PL ([…], time 14 day): 140.4 mg/dL; RALB ([…], time 14 day): 2.9 g/dL; TBIL ([…], time 14 day): 0.012 mg/dL; TC ([…], time 14 day): 67.4 mg/dL; TG ([…], time 14 day): 147.4 mg/dL; TP ([…], time 14 day): 5.7 g/dL; gamma-GTP ([…], time 14 day): 1.4 IU/L; ALP ([…], time 28 day): 1084 IU/L; ALT ([…], time 28 day): 40.4 IU/L; AST ([…], time 28 day): 66.4 IU/L; BUN ([…], time 28 day): 17.4 mg/dL; CRE ([…], time 28 day): 0.2 mg/dL; Ca ([…], time 28 day): 10.3 mg/dL; Cl ([…], time 28 day): 106.6 meq/L; DBIL ([…], time 28 day): 0 mg/dL; GLC ([…], time 28 day): 181.2 mg/dL; IP ([…], time 28 day): 6.4 mg/dL; K ([…], time 28 day): 4 meq/L; LDH ([…], time 28 day): 121.8 IU/L; Na ([…], time 28 day): 144 meq/L; PL ([…], time 28 day): 135.4 mg/dL; RALB ([…], time 28 day): 3.1 g/dL; TBIL ([…], time 28 day): 0.02 mg/dL; TC ([…], time 28 day): 67 mg/dL; TG ([…], time 28 day): 111.2 mg/dL; TP ([…], time 28 day): 6.2 g/dL; gamma-GTP ([…], time 28 day): 1.2 IU/L
